In this experiment the target is Mtb ClpP1P2 (Mycobacterium tuberculosis, UniProt P9WPC3+P9WPC5). In words: Mtb ClpP1P2 peptidase assay (library screening and IC50 determination). In kind it is biochemical.

Results on one molecule are retold here after PMC12042115 (mLife, 2025).

Where two headings read alike, the source gives them in different places.

Chain of Mtb ClpP1P2 (P9WPC3 16-214, one chain of several): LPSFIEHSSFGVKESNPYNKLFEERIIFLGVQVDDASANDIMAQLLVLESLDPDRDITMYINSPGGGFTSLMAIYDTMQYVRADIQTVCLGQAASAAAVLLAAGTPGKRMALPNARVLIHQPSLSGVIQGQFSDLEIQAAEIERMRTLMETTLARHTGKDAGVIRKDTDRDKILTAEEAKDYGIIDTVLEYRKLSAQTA

In general, IC50 refers to the concentration at which inhibition is half-maximal. For the molecule `O=C(Oc1ccc(Cl)cc1)c1ccc(N2CCOCC2)c([N+](=O)[O-])c1` [GDI‐5755], the IC50 is roughly 2100 nM (Figure 2B, neat/synthesized compounds, read-out: ClpP1P2 IC50); roughly 130 nM (enzyme pre‐incubated with inhibitor before adding substrate, decreased to nearly enzyme concentration, read-out: IC50 after prolonged pre‐incubation); 2090 nM (library stocks, concentration–response, read-out: IC50); 2400 ± 70 nM (resynthesized compound, screening assay conditions, three replicates, read-out: IC50).
